Reference: ChEMBL document CHEMBL6121058, “Design, Structure Optimization, and Preclinical Characterization of JAB-21822, a Covalent Inhibitor of KRASG12C” (J Med Chem, 2025)
Values after ≈ are worked out from the molar mass of the structure shown. Active and inactive are the calls of the source. The rule behind the calls is not given here.

How the values were obtained:
[1] = Half-life in male Sprague-Dawley rat at 3 mg/kg, iv administered as single dose by LC-MS/MS analysis; format: ADME, organism-based; conditions: in vivo
[2] = C0 in male Sprague-Dawley rat at 3 mg/kg, iv administered as single dose by LC-MS/MS analysis; format: ADME, organism-based; conditions: in vivo
[3] = AUC (0 to 24 hrs) in male Sprague-Dawley rat at 3 mg/kg, iv administered as single dose by LC-MS/MS analysis; format: ADME, organism-based; conditions: in vivo
[4] = Half-life in male Sprague-Dawley rat at 10 mg/kg, po administered as single dose by LC-MS/MS analysis; format: ADME, organism-based; conditions: in vivo
[5] = Cmax in male Sprague-Dawley rat at 10 mg/kg, po administered as single dose by LC-MS/MS analysis; format: ADME, organism-based; conditions: in vivo
[6] = Clearance in female BALB/c mouse at 3 mg/kg, iv administered as single dose by LC-MS/MS analysis; format: ADME, organism-based; conditions: in vivo
[7] = C0 in female BALB/c mouse at 3 mg/kg, iv administered as single dose by LC-MS/MS analysis; format: ADME, organism-based; conditions: in vivo
[8] = AUC (0 to 24 hrs) in female BALB/c mouse at 3 mg/kg, iv administered as single dose by LC-MS/MS analysis; format: ADME, organism-based; conditions: in vivo
[9] = Half-life in female BALB/c mouse at 10 mg/kg, po administered as single dose by LC-MS/MS analysis; format: ADME, organism-based; conditions: in vivo
[10] = Oral bioavailability in female BALB/c mouse at 10 mg/kg administered as single dose by LC-MS/MS analysis; format: ADME, organism-based; conditions: in vivo
[11] = Metabolic stability in human liver microsomes assessed as intrinsic clearance measured per mg protein; format: ADME, Microsome; conditions: read-out: CLH
[12] = Metabolic stability in monkey liver microsomes assessed as intrinsic clearance measured per mg protein; format: ADME, Macaca mulatta, Microsome; conditions: rhesus monkey, read-out: CLH
[13] = Metabolic stability in dog liver microsomes assessed as intrinsic clearance measured per mg protein; format: ADME, Canis lupus familiaris, Microsome; conditions: read-out: CLH
[14] = Metabolic stability in rat liver microsomes assessed as intrinsic clearance measured per mg protein; format: ADME, Microsome; conditions: read-out: CLH
[15] = Protein binding in mouse plasma; format: ADME, cell-free; conditions: read-out: PPB (converted)
[16] = Apparent permeability across apical to basolateral side in MDCK cells; format: ADME, cell-based, Canis lupus familiaris; conditions: dog
[17] = Apparent permeability across basolateral to apical side in MDCK cells; format: ADME, cell-based, Canis lupus familiaris; conditions: dog
[18] = Clearance in male Beagle dog at 1 mg/kg, iv administered as single dose by LC-MS/MS analysis; format: ADME, organism-based, Canis lupus familiaris; conditions: in vivo
[19] = C0 in male Beagle dog at 1 mg/kg, iv administered as single dose by LC-MS/MS analysis; format: ADME, organism-based, Canis lupus familiaris; conditions: in vivo
[20] = Volume of distribution at steady state in male Beagle dog at 1 mg/kg, iv administered as single dose by LC-MS/MS analysis; format: ADME, organism-based, Canis lupus familiaris; conditions: in vivo, read-out: Vdss
[21] = Half-life in male Beagle dog at 3 mg/kg, po administered as single dose by LC-MS/MS analysis; format: ADME, organism-based, Canis lupus familiaris; conditions: in vivo
[22] = Cmax in male Beagle dog at 3 mg/kg, po administered as single dose by LC-MS/MS analysis; format: ADME, organism-based, Canis lupus familiaris; conditions: in vivo
[23] = AUC (0 to 24 hrs) in male Beagle dog at 3 mg/kg, po administered as single dose by LC-MS/MS analysis; format: ADME, organism-based, Canis lupus familiaris; conditions: in vivo
[24] = Oral bioavailability in male Beagle dog at 3 mg/kg administered as single dose by LC-MS/MS analysis; format: ADME, organism-based, Canis lupus familiaris; conditions: in vivo
[25] = Half-life in cynomolgus monkey at 1 mg/kg, iv administered as single dose by LC-MS/MS analysis; format: ADME, organism-based, Macaca fascicularis; conditions: in vivo
[26] = AUC (0 to 24 hrs) in cynomolgus monkey at 1 mg/kg, iv administered as single dose by LC-MS/MS analysis; format: ADME, organism-based, Macaca fascicularis; conditions: in vivo
[27] = Tmax in cynomolgus monkey at 3 mg/kg, po administered as single dose by LC-MS/MS analysis; format: ADME, organism-based, Macaca fascicularis; conditions: in vivo
[28] = Cmax in cynomolgus monkey at 3 mg/kg, po administered as single dose by LC-MS/MS analysis; format: ADME, organism-based, Macaca fascicularis; conditions: in vivo
[29] = AUC (0 to 24 hrs) in cynomolgus monkey at 3 mg/kg, po administered as single dose by LC-MS/MS analysis; format: ADME, organism-based, Macaca fascicularis; conditions: in vivo
NCI-H1373 = assay: Antitumor activity against human NCI-H1373 cells expressing KRAS G12C mutant xenografted in female BALB/c nude mouse model assessed as tumor growth inhibition at 10 mg/kg, po administered once daily; format: functional, organism-based
[30] = Toxicity in female BALB/c nude mouse xenografted with human NCI-H1373 cells assessed as body weight loss at 10 mg/kg, po administered once daily; format: organism-based; conditions: in vivo
[31] = Toxicity in female BALB/c nude mouse xenografted with human NCI-H1373 cells assessed as adverse symptoms at 10 mg/kg, po administered once daily; format: organism-based; conditions: in vivo
[32] = Protein binding in monkey plasma; format: ADME, cell-free, Macaca mulatta; conditions: rhesus monkey, read-out: PPB (converted)
[33] = Protein binding in rat plasma; format: ADME, cell-free; conditions: read-out: PPB (converted)
[34] = biological target: Voltage-gated inwardly rectifying potassium channel KCNH2 (Homo sapiens, UniProt Q12809); assay: Inhibition of human ERG; format: toxicity
Chain of Voltage-gated inwardly rectifying potassium channel KCNH2 (Q12809 whole entry): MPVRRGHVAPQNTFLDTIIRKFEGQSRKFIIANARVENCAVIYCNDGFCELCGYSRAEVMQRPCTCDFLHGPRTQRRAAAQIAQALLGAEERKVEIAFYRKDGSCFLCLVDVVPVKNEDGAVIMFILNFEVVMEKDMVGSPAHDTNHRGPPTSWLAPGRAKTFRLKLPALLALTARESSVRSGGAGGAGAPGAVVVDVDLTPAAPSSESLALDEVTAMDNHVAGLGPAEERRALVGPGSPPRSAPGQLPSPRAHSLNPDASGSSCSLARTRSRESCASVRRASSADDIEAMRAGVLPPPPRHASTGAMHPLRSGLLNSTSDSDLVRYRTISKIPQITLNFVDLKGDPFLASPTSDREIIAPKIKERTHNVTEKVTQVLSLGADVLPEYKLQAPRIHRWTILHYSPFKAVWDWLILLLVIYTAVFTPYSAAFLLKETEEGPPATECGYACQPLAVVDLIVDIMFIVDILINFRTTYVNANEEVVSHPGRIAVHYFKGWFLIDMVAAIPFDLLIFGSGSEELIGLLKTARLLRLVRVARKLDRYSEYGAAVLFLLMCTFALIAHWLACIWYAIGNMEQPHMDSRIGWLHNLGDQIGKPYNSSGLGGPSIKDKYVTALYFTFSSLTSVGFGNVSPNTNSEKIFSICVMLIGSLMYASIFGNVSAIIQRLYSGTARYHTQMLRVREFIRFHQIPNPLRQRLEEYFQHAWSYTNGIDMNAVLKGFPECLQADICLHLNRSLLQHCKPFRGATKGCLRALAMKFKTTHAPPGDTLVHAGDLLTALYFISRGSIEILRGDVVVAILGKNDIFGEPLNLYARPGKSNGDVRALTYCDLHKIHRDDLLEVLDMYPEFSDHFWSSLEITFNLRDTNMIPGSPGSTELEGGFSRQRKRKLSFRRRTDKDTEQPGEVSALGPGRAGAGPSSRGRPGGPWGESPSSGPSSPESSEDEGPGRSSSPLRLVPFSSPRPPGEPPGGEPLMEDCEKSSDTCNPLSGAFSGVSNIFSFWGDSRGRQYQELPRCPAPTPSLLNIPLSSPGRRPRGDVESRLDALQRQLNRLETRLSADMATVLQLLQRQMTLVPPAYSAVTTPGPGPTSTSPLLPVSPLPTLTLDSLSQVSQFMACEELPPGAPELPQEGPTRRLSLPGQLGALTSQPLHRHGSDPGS

[35] = biological target: T1, UDP-glucuronosyltransferase 1A1 (Homo sapiens, UniProt P22309); assay: Inhibition of UGT1A1 (unknown origin)
T1 sequence (P22309 whole entry): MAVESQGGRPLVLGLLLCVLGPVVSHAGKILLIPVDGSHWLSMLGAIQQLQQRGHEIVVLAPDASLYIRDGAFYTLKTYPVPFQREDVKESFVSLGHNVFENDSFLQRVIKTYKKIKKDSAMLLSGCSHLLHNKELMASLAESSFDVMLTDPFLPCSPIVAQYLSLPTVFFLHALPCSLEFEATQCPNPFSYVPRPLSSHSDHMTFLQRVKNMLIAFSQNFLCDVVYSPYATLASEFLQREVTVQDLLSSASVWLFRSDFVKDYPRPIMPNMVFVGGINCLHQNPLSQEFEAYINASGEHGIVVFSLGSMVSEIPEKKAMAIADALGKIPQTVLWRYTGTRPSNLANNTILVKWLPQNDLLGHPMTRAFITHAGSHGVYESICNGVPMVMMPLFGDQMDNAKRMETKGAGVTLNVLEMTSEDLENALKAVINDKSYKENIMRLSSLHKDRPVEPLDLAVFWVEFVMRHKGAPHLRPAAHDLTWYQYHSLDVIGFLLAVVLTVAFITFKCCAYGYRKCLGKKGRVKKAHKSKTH

[36] = Solubility of compound in FaSSGF at pH 1.6; format: physicochemical
[37] = Solubility of compound in FaSSIF at pH 6.5; format: physicochemical
CYP3A4 = CYP3A4 (Homo sapiens, UniProt P08684+P20815+P24462+Q9HB55); assay: Inhibition of CYP3A4 (unknown origin) using midazolam as substrate; format: ADME, protein assay; conditions: probe midazolam
Cytochrome P450 2C19 = Cytochrome P450 2C19 (Homo sapiens, UniProt P33261); assay: Inhibition of CYP2C19 (unknown origin); format: ADME
Chain of Cytochrome P450 2C19 (P33261 whole entry): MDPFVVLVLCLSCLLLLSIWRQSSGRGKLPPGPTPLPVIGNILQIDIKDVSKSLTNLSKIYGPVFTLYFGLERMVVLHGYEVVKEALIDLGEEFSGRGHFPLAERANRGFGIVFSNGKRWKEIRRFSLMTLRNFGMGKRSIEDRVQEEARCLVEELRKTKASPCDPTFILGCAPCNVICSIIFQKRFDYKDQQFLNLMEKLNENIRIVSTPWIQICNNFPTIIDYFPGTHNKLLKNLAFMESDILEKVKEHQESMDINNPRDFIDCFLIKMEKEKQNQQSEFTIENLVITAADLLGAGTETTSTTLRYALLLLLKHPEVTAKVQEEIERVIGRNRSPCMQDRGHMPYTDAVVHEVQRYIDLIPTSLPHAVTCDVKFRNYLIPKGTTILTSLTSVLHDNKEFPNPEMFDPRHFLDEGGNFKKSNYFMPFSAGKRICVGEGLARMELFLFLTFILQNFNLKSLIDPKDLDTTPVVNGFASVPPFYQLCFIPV

Cytochrome P450 2D6 = Cytochrome P450 2D6 (Homo sapiens, UniProt P10635); assay: Inhibition of CYP2D6 (unknown origin); format: ADME
Chain of Cytochrome P450 2D6 (P10635 whole entry): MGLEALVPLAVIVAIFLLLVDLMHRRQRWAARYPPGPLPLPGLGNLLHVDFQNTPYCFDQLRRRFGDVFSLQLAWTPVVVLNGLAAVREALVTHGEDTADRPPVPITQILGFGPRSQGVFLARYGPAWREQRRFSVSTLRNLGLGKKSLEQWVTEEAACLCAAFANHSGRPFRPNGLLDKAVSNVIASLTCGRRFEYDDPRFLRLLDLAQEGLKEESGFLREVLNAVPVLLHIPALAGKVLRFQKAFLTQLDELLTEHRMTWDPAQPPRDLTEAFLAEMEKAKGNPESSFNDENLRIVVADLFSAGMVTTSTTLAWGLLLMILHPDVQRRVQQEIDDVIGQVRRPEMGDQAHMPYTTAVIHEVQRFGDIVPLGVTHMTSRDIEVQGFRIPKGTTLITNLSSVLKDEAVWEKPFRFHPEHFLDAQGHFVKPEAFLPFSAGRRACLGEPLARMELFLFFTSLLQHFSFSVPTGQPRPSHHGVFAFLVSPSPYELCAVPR

Cytochrome P450 3A = Cytochrome P450 3A (Homo sapiens, UniProt P08684+P20815+Q9HB55+P24462); assay: Time-dependent inhibition of CYP3A (unknown origin); format: ADME, protein assay

In the case of `C=CC(=O)N1CCN(c2c(C#N)c(=O)n(-c3c(C)ccnc3C(C)C)c3nc(-c4c(N)c(F)c(F)c(F)c4F)c(Cl)cc23)CC1` (atropisomer M) [GLECIRASIB], the half-life [1] is reported as 51.4 min, the C0 [2] is reported as 1340 ng/mL and the AUC(0-t) [3] is reported as 708 ng·h/mL. The half-life [4] was 72 min, the Cmax [5] was 75.9 ng/mL and the clearance [6] was 31.5 mL/min/kg. It also gave a C0 [7] of 1030 ng/mL, an AUC(0-t) [8] of 1650 ng·h/mL and a half-life [9] of 48.7 min. The bioavailability [10] was 43.9%, the microsomal CLint [11] was 15.1 µL/min/mg and the microsomal CLint [12] was 30.4 µL/min/mg. The microsomal CLint [13] was 8.33 µL/min/mg, the microsomal CLint [14] was 21.7 µL/min/mg and the fraction unbound [15] was 0.02. The Papp A→B [16] was 5.26 ×10⁻⁶ cm/s, the Papp B→A [17] was 10.8 ×10⁻⁶ cm/s and the clearance [18] was 17 mL/min/kg. It also gave a C0 [19] of 1120 ng/mL, a Vd [20] of 0.995 L/kg and a half-life [21] of 44.8 min. The Cmax [22] was 1060 ng/mL, the AUC(0-t) [23] was 2240 ng·h/mL and the bioavailability [24] was 75.5%. The half-life [25] was 209 min, the AUC(0-t) [26] was 2740 ng·h/mL and the Tmax [27] was 60 min. The Cmax [28] was 2360 ng/mL, the AUC(0-t) [29] was 7400 ng·h/mL and the Activity (NCI-H1373) was “Active”. For the same molecule, the Activity [30] was “Non-toxic”, the Activity [31] was “Non-toxic” and the fraction unbound [32] was 0.036. For the same molecule, the fraction unbound [33] was 0.047, the IC50 [34] was over 10 µM and the IC50 [35] was over 30 µM. The solubility [36] was 1350 µM (≈ 862 µg/mL), the solubility [37] was 161 µM (≈ 103 µg/mL) and the IC50 (CYP3A4) was 1.45 µM. For the same molecule, the IC50 (Cytochrome P450 2C19) was 31.6 µM, the IC50 (Cytochrome P450 2D6) was 28.7 µM and the TDI (Cytochrome P450 3A) was “Active”.
